According to ChEMBL document CHEMBL1152728, “1-Amido-1-phenyl-3-piperidinylbutanes - CCR5 antagonists for the treatment of HIV. Part 1” (Bioorg Med Chem Lett, 2009):
Calls of active or inactive are those of the source. The calls are words filed in the database; no cut-off is given here.

Assays:
Liver microsomes = experiment: Metabolic stability in human liver microsomes assessed as clearance measured per mg of protein; format: ADME, Microsome
physchem [1] = settings: buffer, pH 7.4
[2] = system: Human immunodeficiency virus 1; experiment: microbe, parasite or virus in culture; settings: Human immunodeficiency virus 1, Bal, PM1
[3] = target: Voltage-gated inwardly rectifying potassium channel KCNH2 (Homo sapiens, UniProt Q12809)
Chain of Voltage-gated inwardly rectifying potassium channel KCNH2 (Q12809 whole entry): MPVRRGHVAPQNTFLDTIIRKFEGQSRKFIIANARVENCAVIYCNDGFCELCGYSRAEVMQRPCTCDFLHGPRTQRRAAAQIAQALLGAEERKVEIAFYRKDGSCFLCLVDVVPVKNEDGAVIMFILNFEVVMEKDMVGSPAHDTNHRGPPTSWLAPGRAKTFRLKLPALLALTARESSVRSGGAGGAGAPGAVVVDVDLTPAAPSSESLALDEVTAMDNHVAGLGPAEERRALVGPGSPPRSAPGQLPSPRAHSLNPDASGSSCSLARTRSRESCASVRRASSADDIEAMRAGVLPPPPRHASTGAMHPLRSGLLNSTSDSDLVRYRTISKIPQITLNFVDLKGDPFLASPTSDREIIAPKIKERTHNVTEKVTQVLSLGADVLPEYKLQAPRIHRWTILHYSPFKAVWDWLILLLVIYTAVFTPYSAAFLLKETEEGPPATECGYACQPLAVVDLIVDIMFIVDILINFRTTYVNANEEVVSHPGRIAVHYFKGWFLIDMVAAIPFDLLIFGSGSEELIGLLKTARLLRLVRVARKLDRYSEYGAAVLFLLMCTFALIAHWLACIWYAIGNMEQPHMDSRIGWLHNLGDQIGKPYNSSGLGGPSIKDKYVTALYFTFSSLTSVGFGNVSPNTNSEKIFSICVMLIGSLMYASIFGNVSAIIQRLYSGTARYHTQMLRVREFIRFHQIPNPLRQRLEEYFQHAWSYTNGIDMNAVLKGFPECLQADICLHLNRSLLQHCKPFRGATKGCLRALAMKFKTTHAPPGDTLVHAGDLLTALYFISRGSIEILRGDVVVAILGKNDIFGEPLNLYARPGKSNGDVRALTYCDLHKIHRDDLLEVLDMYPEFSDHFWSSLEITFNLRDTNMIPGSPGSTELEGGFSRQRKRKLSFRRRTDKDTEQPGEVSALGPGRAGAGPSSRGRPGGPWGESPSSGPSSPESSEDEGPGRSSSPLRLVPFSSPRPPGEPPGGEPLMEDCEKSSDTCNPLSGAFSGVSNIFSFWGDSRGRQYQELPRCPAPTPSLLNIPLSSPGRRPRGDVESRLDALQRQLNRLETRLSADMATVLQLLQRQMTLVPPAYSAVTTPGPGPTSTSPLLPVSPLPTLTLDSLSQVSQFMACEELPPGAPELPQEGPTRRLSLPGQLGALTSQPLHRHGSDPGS
Description: Displacement of [3H]dofetilide from human ERG expressed in HEK293 cells

hERG (KCNH2) = hERG (KCNH2) (Homo sapiens, UniProt Q12809); experiment: in vitro; settings: HEK293 cells that express human ERG, probe [3H]dofetilide
Chain of hERG (KCNH2) (Q12809 whole entry): as above
Description: Displacement of [3H]dofetilide from human ERG expressed in HEK293 cells at 300 nM

physchem [4] = experiment: physchem
Description: Dissociation constant, pKa of the compound

[5] = system: Human immunodeficiency virus 1; settings: Bal, PM1

| SMILES | Stability (Liver microsomes) [µL/min] | logD (physchem [1]) | IC90 [2] [nM] | also measured |
| --- | --- | --- | --- | --- |
| Cc1nnc(C2CCN(C(C)C[C@H](NC(=O)C3CCC3)c3ccccc3)CC2)o1 (some centres undefined) | < 7 | 1.3 |  |  |
| Cc1noc(C2CCN(C(C)C[C@H](NC(=O)C3CCC3)c3ccccc3)CC2)n1 (some centres undefined) | 56 | 2.1 |  |  |
| CCN(C(=O)c1ccc(F)cc1)C1CCN(C(C)C[C@H](NC(=O)C2CCC2)c2ccccc2)CC1 (some centres undefined) |  |  | 1630 |  |
| CCN(C(=O)OCc1ccccc1)C1CCN(C(C)C[C@H](NC(=O)C2CCC2)c2ccccc2)CC1 (some centres undefined) |  |  | 0.322 |  |
| CC(C[C@H](NC(=O)C1CCC1)c1ccccc1)N1CCC(c2[nH]ncc2-c2ccncc2)CC1 (some centres undefined) | 38 | 2.4 |  | IC50 [3]: 117 nM |
| Cc1nnc(C(C)C)n1C1CCN(C(C)C[C@H](NC(=O)C2CCC2)c2ccccc2)CC1 (some centres undefined) | < 7 | 1.9 |  |  |
| CC(C[C@H](NC(=O)C1CCC1)c1ccccc1)N1CCC(n2cc(-c3ccccc3)[nH]c2=O)CC1 (some centres undefined) | 35 | 3.5 |  | IC50 [3]: 4.7 nM |
| Cc1nnc(C(C)C)n1C1CCN(CC[C@H](NC(=O)C2CCC(F)(F)CC2)c2ccccc2)CC1 | < 8 | 1.7 |  | inhibition at 0.3 µM (hERG (KCNH2)): 0%; pKa (physchem [4]): 7.2; Activity [5]: inactive |
| CC(C[C@H](NC(=O)C1CCC1)c1ccccc1)N1CCC(c2nnc(CN(C)C)o2)CC1 (some centres undefined) | < 7 | 1.1 |  |  |
| CCN(C(=O)Cc1ccc(OC)cc1)[C@H]1C[C@H]2CC[C@@H](C1)N2CC[C@H](NC(=O)C1CCC1)c1ccccc1 | 183 | 2.9 |  | pKa (physchem [4]): 8.7 |
| Cc1nnc(C)n1C1CCN(C(C)C[C@H](NC(=O)C2CCC2)c2ccccc2)CC1 (some centres undefined) | < 7 | 1.2 |  |  |
| CCN(C(=O)Oc1ccc(F)cc1)C1CCN(C(C)C[C@H](NC(=O)C2CCC2)c2ccccc2)CC1 (some centres undefined) |  |  | 61.4 |  |
| CC(C)c1noc(C2CCN(C(C)C[C@H](NC(=O)C3CCC3)c3ccccc3)CC2)n1 (some centres undefined) | 204 | 3.2 |  |  |
| Cc1nnc(C(C)C)n1[C@H]1C[C@H]2CC[C@@H](C1)N2CC[C@H](NC(=O)C1CCC(F)(F)CC1)c1ccccc1 [MARAVIROC] | 22 | 2 | 0.7 | pKa (physchem [4]): 7.7 |
| CCN(C(=O)NCc1ccc(Cl)c(Cl)c1)C1CCN(C(C)C[C@H](NC(=O)C2CCC2)c2ccccc2)CC1 (some centres undefined) |  |  | 0.236 |  |
